Results from ChEMBL document CHEMBL4507281, “Data for DCP probe BI-4394” (2021).

How the values were obtained:
[1] = target: RAC-alpha serine/threonine-protein kinase (Homo sapiens) (UniProt P31749); settings: Compound concentration 100.0 nM
[2] = target: Serine/threonine-protein kinase PLK2 (Homo sapiens) (UniProt Q9NYY3); settings: Compound concentration 100.0 nM
[3] = target: Serine/threonine-protein kinase 4 (Homo sapiens) (UniProt Q13043); settings: Compound concentration 100.0 nM
[4] = target: Rhodopsin kinase GRK1 (Homo sapiens) (UniProt Q15835); settings: Compound concentration 100.0 nM
[5] = target: cAMP-dependent protein kinase catalytic subunit beta (Homo sapiens) (UniProt P22694); settings: Compound concentration 100.0 nM
[6] = target: Serine/threonine-protein kinase 10 (Homo sapiens) (UniProt O94804); settings: Compound concentration 100.0 nM
[7] = target: Tyrosine-protein kinase Blk (Homo sapiens) (UniProt P51451); settings: Compound concentration 100.0 nM
[8] = target: Calcium/calmodulin-dependent protein kinase kinase 1 (Homo sapiens) (UniProt Q8N5S9); settings: Compound concentration 100.0 nM
[9] = target: SRSF protein kinase 3 (Homo sapiens) (UniProt Q9UPE1); settings: Compound concentration 100.0 nM
[10] = target: Serine/threonine-protein kinase 17A (Homo sapiens) (UniProt Q9UEE5); settings: Compound concentration 100.0 nM
Sequence of Serine/threonine-protein kinase 17A (Homo sapiens) (Q9UEE5 whole entry): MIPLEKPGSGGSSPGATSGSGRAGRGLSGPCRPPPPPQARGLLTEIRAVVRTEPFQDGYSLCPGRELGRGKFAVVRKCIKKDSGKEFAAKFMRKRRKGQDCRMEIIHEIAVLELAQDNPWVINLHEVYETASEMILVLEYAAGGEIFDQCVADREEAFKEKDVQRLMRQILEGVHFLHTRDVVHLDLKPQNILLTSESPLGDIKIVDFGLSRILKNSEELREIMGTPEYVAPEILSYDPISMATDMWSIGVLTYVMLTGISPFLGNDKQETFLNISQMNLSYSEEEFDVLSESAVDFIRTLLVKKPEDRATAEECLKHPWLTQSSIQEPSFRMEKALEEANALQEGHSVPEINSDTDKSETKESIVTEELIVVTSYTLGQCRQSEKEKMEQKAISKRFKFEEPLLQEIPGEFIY

[11] = target: NUAK family SNF1-like kinase 1 (Homo sapiens) (UniProt O60285); settings: Compound concentration 100.0 nM
Sequence of NUAK family SNF1-like kinase 1 (Homo sapiens) (O60285 whole entry): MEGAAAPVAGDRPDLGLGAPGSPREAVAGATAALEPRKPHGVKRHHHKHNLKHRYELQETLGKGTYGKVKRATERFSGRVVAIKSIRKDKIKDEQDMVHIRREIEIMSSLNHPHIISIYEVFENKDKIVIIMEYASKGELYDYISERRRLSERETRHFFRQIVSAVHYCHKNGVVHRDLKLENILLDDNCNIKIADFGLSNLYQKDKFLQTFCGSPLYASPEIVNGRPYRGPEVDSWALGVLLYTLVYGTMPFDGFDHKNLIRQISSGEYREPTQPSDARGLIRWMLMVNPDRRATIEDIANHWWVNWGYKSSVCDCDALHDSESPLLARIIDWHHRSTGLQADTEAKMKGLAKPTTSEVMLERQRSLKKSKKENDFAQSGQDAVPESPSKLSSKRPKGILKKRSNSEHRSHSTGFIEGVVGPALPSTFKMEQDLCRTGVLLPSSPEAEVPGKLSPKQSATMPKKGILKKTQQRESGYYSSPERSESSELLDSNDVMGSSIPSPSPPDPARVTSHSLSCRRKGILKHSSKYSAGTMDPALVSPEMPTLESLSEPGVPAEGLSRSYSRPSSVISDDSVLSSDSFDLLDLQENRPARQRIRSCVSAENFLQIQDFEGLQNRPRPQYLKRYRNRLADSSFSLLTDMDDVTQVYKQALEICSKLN

[12] = target: STE20/SPS1-related proline-alanine-rich protein kinase (Homo sapiens) (UniProt Q9UEW8); settings: Compound concentration 100.0 nM
[13] = target: Cyclin-dependent kinase 13 (Homo sapiens) (UniProt Q14004); settings: Compound concentration 100.0 nM
Sequence of Cyclin-dependent kinase 13 (Homo sapiens) (Q14004 whole entry, looked up): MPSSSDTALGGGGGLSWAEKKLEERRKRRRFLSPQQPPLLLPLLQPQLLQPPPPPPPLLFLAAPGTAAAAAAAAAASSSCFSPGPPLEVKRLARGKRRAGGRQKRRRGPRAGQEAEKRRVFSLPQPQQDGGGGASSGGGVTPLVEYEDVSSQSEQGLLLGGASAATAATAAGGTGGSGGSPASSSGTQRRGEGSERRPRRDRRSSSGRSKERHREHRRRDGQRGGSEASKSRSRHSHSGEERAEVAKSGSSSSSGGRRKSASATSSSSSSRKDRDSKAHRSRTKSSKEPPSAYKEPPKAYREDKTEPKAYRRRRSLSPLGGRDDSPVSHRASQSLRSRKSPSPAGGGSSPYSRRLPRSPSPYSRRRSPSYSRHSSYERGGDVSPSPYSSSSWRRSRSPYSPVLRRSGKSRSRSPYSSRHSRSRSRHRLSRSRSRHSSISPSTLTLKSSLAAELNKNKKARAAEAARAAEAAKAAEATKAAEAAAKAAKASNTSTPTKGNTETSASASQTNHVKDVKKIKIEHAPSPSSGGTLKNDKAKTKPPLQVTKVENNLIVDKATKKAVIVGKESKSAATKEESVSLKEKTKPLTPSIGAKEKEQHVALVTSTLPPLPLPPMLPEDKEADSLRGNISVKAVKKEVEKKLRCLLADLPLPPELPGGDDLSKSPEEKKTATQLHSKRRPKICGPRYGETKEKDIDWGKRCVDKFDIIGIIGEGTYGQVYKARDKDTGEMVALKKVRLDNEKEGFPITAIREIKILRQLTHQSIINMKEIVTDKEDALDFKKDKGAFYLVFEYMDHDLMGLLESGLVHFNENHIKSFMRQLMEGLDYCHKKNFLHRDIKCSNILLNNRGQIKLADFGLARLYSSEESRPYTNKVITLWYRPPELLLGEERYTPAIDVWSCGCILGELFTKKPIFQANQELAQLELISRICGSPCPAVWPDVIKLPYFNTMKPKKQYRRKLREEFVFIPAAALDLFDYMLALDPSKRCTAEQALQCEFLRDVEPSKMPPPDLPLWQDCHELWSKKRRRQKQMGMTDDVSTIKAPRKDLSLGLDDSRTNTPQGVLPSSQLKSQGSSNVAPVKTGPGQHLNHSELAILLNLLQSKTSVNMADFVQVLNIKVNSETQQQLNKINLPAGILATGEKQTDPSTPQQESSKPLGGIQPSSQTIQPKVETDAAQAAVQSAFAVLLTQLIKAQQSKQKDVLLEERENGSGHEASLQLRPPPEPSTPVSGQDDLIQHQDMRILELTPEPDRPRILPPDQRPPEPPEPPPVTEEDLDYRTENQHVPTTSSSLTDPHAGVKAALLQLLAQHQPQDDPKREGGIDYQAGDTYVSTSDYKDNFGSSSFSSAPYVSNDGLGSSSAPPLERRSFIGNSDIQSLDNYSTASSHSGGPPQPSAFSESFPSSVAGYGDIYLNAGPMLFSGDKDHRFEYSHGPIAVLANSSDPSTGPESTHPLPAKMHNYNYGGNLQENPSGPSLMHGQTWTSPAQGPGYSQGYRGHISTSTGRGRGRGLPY

[14] = target: Mitogen-activated protein kinase 15 (Homo sapiens) (UniProt Q8TD08); settings: Compound concentration 100.0 nM
[15] = target: Tyrosine-protein kinase receptor Tie-1 (Homo sapiens) (UniProt P35590); settings: Compound concentration 100.0 nM
[16] = test system: Tyrosine-protein kinase ABL1 (Homo sapiens), P00519 [F317L]; settings: Compound concentration 100.0 nM
[17] = target: Serine/threonine-protein kinase Nek11 (Homo sapiens) (UniProt Q8NG66); settings: Compound concentration 100.0 nM
Sequence of Serine/threonine-protein kinase Nek11 (Homo sapiens) (Q8NG66 whole entry): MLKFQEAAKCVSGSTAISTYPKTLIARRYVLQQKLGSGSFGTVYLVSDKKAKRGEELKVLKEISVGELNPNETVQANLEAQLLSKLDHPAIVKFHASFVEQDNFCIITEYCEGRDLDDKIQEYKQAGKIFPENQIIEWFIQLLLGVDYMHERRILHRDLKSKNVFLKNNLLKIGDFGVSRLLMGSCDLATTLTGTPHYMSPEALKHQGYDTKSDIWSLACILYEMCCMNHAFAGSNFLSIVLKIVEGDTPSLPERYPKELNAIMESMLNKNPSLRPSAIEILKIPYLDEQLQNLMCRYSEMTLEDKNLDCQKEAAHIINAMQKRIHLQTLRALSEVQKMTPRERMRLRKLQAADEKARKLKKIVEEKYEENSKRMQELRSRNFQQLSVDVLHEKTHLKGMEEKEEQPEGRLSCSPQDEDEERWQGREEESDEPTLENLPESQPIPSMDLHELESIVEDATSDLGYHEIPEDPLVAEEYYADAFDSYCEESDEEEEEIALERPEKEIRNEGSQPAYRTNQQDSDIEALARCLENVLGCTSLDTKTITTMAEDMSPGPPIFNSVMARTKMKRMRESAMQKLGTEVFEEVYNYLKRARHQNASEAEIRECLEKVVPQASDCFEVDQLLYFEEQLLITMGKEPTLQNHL

[18] = target: Tyrosine-protein kinase Mer (Homo sapiens) (UniProt Q12866); settings: Compound concentration 100.0 nM
[19] = test system: Phosphatidylinositol 4,5-bisphosphate 3-kinase catalytic subunit alpha isoform (Homo sapiens), P42336 [E542K]; settings: Compound concentration 100.0 nM
[20] = target: MAP/microtubule affinity-regulating kinase 4 (Homo sapiens) (UniProt Q96L34); settings: Compound concentration 100.0 nM
[21] = target: T1, Interleukin-1 receptor-associated kinase 4 (Homo sapiens) (UniProt Q9NWZ3); settings: Compound concentration 100.0 nM
T1 sequence (whole entry): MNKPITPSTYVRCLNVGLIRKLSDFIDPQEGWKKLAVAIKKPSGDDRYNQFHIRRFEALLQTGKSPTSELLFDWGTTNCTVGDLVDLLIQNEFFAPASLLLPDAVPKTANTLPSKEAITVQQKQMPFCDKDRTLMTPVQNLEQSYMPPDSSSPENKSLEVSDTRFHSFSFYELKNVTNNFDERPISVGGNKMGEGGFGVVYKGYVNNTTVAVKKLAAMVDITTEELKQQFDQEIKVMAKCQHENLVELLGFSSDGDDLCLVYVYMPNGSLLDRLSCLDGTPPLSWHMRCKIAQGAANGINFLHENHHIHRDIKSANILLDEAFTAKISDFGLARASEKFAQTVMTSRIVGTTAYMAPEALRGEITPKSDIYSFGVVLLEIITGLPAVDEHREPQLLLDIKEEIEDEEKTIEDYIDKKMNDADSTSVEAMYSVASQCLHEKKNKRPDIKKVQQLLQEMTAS

[22] = target: Serine/threonine-protein kinase N1 (Homo sapiens) (UniProt Q16512); settings: Compound concentration 100.0 nM
[23] = target: Protein-tyrosine kinase 6 (Homo sapiens) (UniProt Q13882); settings: Compound concentration 100.0 nM
[24] = target: Phosphatidylinositol 4-phosphate 3-kinase C2 domain-containing subunit beta (Homo sapiens) (UniProt O00750); settings: Compound concentration 100.0 nM
[25] = target: Tyrosine-protein kinase TXK (Homo sapiens) (UniProt P42681); settings: Compound concentration 100.0 nM
[26] = target: Serine/threonine-protein kinase OSR1 (Homo sapiens) (UniProt O95747); settings: Compound concentration 100.0 nM
[27] = target: Serine/threonine-protein kinase tousled-like 1 (Homo sapiens) (UniProt Q9UKI8); settings: Compound concentration 100.0 nM
[28] = target: Serine/threonine-protein kinase Nek5 (Homo sapiens) (UniProt Q6P3R8); settings: Compound concentration 100.0 nM
[29] = target: Dual specificity protein kinase CLK2 (Homo sapiens) (UniProt P49760); settings: Compound concentration 100.0 nM
Sequence of Dual specificity protein kinase CLK2 (Homo sapiens) (P49760 whole entry, looked up): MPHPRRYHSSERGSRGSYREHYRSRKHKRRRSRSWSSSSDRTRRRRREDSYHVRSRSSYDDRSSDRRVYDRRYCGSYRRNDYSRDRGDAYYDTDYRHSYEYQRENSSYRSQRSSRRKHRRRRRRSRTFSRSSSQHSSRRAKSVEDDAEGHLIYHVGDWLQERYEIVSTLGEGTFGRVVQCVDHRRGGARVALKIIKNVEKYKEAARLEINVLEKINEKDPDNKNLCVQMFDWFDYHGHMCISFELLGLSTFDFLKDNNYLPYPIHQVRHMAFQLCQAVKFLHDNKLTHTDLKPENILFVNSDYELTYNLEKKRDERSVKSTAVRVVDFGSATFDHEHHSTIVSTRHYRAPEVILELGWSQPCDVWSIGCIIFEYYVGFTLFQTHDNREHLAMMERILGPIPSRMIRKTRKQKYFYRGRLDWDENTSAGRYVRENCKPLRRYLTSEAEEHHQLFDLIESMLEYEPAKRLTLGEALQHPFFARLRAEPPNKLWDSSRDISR

[30] = target: Mitogen-activated protein kinase kinase kinase 13 (Homo sapiens) (UniProt O43283); settings: Compound concentration 100.0 nM
[31] = target: Testis-specific serine/threonine-protein kinase 1 (Homo sapiens) (UniProt Q9BXA7); settings: Compound concentration 100.0 nM
[32] = target: Serine/threonine-protein kinase Nek10 (Homo sapiens) (UniProt Q6ZWH5); settings: Compound concentration 100.0 nM
Sequence of Serine/threonine-protein kinase Nek10 (Homo sapiens) (Q6ZWH5 whole entry): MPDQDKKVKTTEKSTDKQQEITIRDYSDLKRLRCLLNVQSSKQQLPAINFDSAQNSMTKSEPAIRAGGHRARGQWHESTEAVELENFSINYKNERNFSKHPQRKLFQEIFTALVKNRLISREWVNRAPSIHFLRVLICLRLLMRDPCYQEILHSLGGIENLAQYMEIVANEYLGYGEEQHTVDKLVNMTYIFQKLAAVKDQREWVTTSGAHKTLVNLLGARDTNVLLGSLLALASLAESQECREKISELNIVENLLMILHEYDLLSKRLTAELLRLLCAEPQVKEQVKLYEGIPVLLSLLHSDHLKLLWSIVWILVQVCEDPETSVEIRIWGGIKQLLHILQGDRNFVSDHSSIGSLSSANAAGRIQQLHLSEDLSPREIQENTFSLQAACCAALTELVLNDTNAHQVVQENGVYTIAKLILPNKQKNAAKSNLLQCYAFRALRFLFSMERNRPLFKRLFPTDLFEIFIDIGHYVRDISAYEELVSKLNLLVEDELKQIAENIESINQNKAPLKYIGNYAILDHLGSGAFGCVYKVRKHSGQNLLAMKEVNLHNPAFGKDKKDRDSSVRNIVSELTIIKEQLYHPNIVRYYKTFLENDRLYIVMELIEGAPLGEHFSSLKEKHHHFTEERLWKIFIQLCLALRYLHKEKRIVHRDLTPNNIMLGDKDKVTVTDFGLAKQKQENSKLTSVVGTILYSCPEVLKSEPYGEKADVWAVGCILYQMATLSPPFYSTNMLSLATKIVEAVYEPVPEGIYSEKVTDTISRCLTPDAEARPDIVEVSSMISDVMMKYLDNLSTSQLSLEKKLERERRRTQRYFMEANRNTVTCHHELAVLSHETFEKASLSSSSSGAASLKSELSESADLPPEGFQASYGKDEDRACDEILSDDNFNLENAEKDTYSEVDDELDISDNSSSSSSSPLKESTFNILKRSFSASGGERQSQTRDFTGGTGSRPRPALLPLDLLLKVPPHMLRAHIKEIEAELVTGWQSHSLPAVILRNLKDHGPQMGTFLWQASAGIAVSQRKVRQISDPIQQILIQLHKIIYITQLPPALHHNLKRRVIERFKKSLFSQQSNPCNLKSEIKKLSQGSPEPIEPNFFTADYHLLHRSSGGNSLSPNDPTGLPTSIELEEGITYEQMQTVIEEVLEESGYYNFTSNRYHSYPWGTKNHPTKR

[33] = target: Proto-oncogene tyrosine-protein kinase ROS (Homo sapiens) (UniProt P08922); settings: Compound concentration 100.0 nM
[34] = target: MAP kinase-activated protein kinase 5 (Homo sapiens) (UniProt Q8IW41); settings: Compound concentration 100.0 nM
[35] = target: Non-receptor tyrosine-protein kinase TYK2 (Homo sapiens) (UniProt P29597); settings: Compound concentration 100.0 nM
[36] = target: Serine/threonine-protein kinase SIK1 (Homo sapiens) (UniProt P57059); settings: Compound concentration 100.0 nM
[37] = target: Mitogen-activated protein kinase kinase kinase 4 (Homo sapiens) (UniProt Q9Y6R4); settings: Compound concentration 100.0 nM
[38] = target: Beta-2 adrenergic receptor (Homo sapiens) (UniProt P07550); settings: Compound concentration 10.0 uM

Row | SMILES | residual activity [1] | residual activity [2] | residual activity [3] | residual activity [4] | residual activity [5] | residual activity [6] | residual activity [7] | residual activity [8] | residual activity [9] | residual activity [10] | residual activity [11] | residual activity [12] | residual activity [13] | residual activity [14] | residual activity [15] | residual activity [16] | residual activity [17] | residual activity [18] | residual activity [19] | residual activity [20] | further results
1 | Cn1nc(C(=O)NCc2ccc(C(=O)O)cc2)cc1-c1ccc2[nH]ccc2c1 [BI 4395] | 100% | 100% | 80% | 100% | 98% | 80% | 100% | 85% | 100% | 92% | 70% | 90% | 72% | 98% | 93% | 62% | 83% | 40% | 88% | 100% | residual activity [21]: 71%; residual activity [22]: 90%; residual activity [23]: 89%; residual activity [24]: 78%; residual activity [25]: 90%; residual activity [26]: 88%; residual activity [27]: 100%; residual activity [28]: 48%; residual activity [29]: 100%; residual activity [30]: 78%; residual activity [31]: 100%; residual activity [32]: 58%; residual activity [33]: 74%; residual activity [34]: 89%; residual activity [35]: 94%; residual activity [36]: 100%; residual activity [37]: 86%; inhibition [38]: 6.74%
2 | CCOC(=O)c1cc2cc(-c3cc(C(=O)NCc4ccc(C(=O)O)cc4)nn3C)ccc2[nH]1 [BI 4394] | 100% | 80% | 100% | 95% | 86% | 100% | 99% | 100% | 100% | 97% | 100% | 85% | 83% | 100% | 76% | 100% | 77% | 100% | 96% | 79% | residual activity [21]: 91%; residual activity [22]: 100%; residual activity [23]: 98%; residual activity [24]: 93%; residual activity [25]: 90%; residual activity [26]: 100%; residual activity [27]: 83%; residual activity [28]: 100%; residual activity [29]: 96%; residual activity [30]: 74%; residual activity [31]: 100%; residual activity [32]: 90%; residual activity [33]: 97%; residual activity [34]: 92%; residual activity [35]: 91%; residual activity [36]: 97%; residual activity [37]: 91%; inhibition [38]: -7.76%
